Reference: a melting point compilation (Tetko et al.; mined from patent text by program, amines drawn as free bases though some values may be those of a salt)

Row | melting point | SMILES
1 | 142 to 144 °C | CC(=O)ON=C1CCCN(C(=O)c2ccc(NC(=O)c3ccccc3Cl)cc2)c2ccccc21
2 | 170 to 172 °C | CCOC(=O)c1cc(=O)c2cc(N3CCOCC3)c(=O)ccc2n1C
3 | 140 to 145 °C | O=C(c1cccs1)c1cnn2c(-c3ccc(F)c(-c4ccc(CO)cc4)c3)ccnc12
4 | 126 to 128 °C | Cc1c2n(c3ccccc13)CCC(Br)C2=O (configuration not stated)
5 | 171 °C | Cn1cncc1C(c1ccc(Cl)cc1)c1ccc2c(c1)c(-c1nc(-c3ccccc3)cs1)cc(=O)n2C (configuration not stated)
6 | 105 to 107 °C | O=C(OCc1ccccc1)c1ccc(OC(=O)c2cccc(C(=O)Oc3ccc(C(=O)OCc4ccccc4)cc3)c2)cc1
7 | 82.3 °C | CC1C(C)(C)C2CCc3cnoc3C2C1(C)C (configuration not stated)
8 | 299 °C | Cc1nc(NC(=O)c2cnn3c(C(F)(F)F)cc(-c4ccc(C(F)(F)F)c(Cl)c4)nc23)sc1S(N)(=O)=O
9 | 133 to 134 °C | COc1ccc(CNc2cc(Cn3c(C(=O)c4cc(C)cc(C#N)c4)c(C(C)C)c(=O)[nH]c3=O)c(F)c(F)n2)cc1
10 | 239 to 243 °C | O=C(N[C@@H](Cc1ccc(C(F)(F)F)cc1)[C@H](O)c1ccncc1)c1ccc(F)c2ccccc12
11 | 220 to 222 °C | NNc1nc(N)c2ncn(COCCO)c2n1
12 | 102 to 103 °C | CCOC(=O)CN=C(c1ccccc1)c1ccccc1NC1CCN(C)CC1
13 | 245 to 246 °C | O=C1NCc2c(O)nc3ccccc3c21
14 | 74.5 to 79 °C | COc1cc(/C=C/C(=O)CC(=O)C2CC2)ccc1O
15 | 176 to 178 °C | CCN(CC)CC1CCCCN1CC(=O)N1c2ccccc2NC(=O)c2c1c(C)cn2C (configuration not stated)
16 | 199 to 201 °C | Cc1nn(-c2cc3nc(S(C)=O)sc3cc2F)c(=O)n1C (configuration not stated)
17 | 162 °C | O=S(CCCCOc1ccc(C2=C(c3ccccc3)CCCc3cc(O)ccc32)cc1)Cc1ccccn1 (configuration not stated)
18 | 253 to 254 °C | O=C1CC2(C(=O)N1)C(=O)N(Cc1ccc(Cl)c(Cl)c1)c1ccc(F)cc12 (configuration not stated)
19 | 186 to 187 °C | O=C(Cc1cccc2ccccc12)N[C@H](Cc1ccc(C(F)(F)F)cc1)[C@@H](O)c1ccc(F)cc1 (racemic)
20 | 246 to 249 °C | Cn1nnc(-c2ccc(C=Cc3ccc(-c4nc5ccccc5o4)cc3)cc2)c1-c1nc2ccccc2o1
21 | 106 to 109 °C | Oc1ccc(NCC2Cc3ccccc3C2)cc1
22 | 186 to 187 °C | Oc1cccc(-c2c(-c3ccccc3F)cnc3c(C(F)(F)F)cccc23)c1
23 | 55 to 58 °C | Cc1cccc(Cl)c1NC(=O)n1nc(Oc2cccc(C(F)(F)F)c2)cc1C
24 | 148 to 149 °C | O=C1OC(Cl)(c2ccc(Cl)cc2Cl)c2ccccc21 (configuration not stated)
25 | 183 to 184 °C | Cc1cc(S(F)(F)(F)(F)F)ccc1C(=O)NC(=N)N
26 | 108 to 110 °C | CC(C)=CCCC(C)=CCOc1ccc(C(=O)NCc2ccncc2)cc1
27 | 210 °C | CC(C)(C)c1cc(C=Cc2n[nH]c(=S)o2)cc(C(C)(C)C)c1O
28 | 110 to 111 °C | CCCCCCCCCCCCOc1cccc(C2=C(O)C(O)(Cc3ccccc3)N(C)C2=O)c1 (configuration not stated)

The remaining lines, values behind:

Row | SMILES | melting point
29 | Cc1cccc(-c2nc3ccccn3c2-c2ccnc(-c3ccc(N4CCOCC4)cc3)c2)n1 | 190 °C
30 | N#Cc1ccc(-n2c(N)nc3ccccc32)cc1Cl | 245 to 248 °C
31 | CCC1(CCOS(C)(=O)=O)C(=O)N2CC=CC(C(=O)OC)N2C1=O (configuration not stated) | 94 to 96 °C
32 | CC(C)c1ccc(NC(=O)OC(C)(C)C)c(C(=O)O)c1 | 175 °C
33 | COc1ccc(N2CCN(CCC(O)COc3ccccc3)CC2)cc1 (configuration not stated) | 95 to 97 °C
34 | CN1CCN(c2c(F)cc3c(=O)c(C(=O)O)cn(C4COC4)c3c2Cl)CC1 | 211 to 212 °C
35 | COc1ccc(S(=O)(=O)Nc2cc(F)cc3c2Nc2ccc(O)cc2CO3)cc1 | 201 to 210 °C
36 | CC(=O)N(c1cccc(C(=O)O)c1)c1cc(C(C)(C)C)c(O)c(C(C)(C)C)c1 | 204 to 206 °C
37 | CC(=O)Nc1ccc(S(=O)(=O)Nc2cc(Cl)nc(N3CCCC3)n2)cc1 | 229 to 233 °C
38 | COc1ccnc(CCc2nc3cc(-c4ccc(S(=O)(=O)N5CCC(C)CC5)cc4)cnc3[nH]2)c1 | 186 to 188 °C
39 | CC(CO)(c1ccc(Cl)cc1)N1CCN(c2ccc(CO)c(Cl)c2)CC1 (configuration not stated) | 126 to 130 °C
40 | C=CS(=O)(=O)Nc1c(C)cc([N+](=O)[O-])cc1C | 132 °C
41 | CCN(CC)CC(O)CNC(=O)c1c(OC)c2ccccc2n1-c1ccccc1 (configuration not stated) | 148 to 150 °C
42 | CCOC(=O)c1c(Cn2cncn2)nc2sc3c(c2c1-c1ccc(OC)c(OC)c1)CCNC3 | 164 to 165 °C
43 | CSC(=N[N+](=O)[O-])N(Cc1cnc(Cl)s1)C(C)=O | 77 to 78 °C
44 | O=C(O)CN1CCCCC1 | 185 to 187 °C
45 | CCCCCc1ccc(S(=O)(=O)n2c(CCC(=O)O)cc3cc(Cl)ccc32)cc1 | 131 to 134 °C
46 | CC(=O)Nc1cccc2c1C1(COc3cc4c(cc31)OCCO4)C(=O)N2C (configuration not stated) | 182 to 184 °C
47 | CCc1c(-c2ccc(OCc3ccccc3)cc2)cn2cccc(CO)c12 | 144 to 145 °C
48 | COc1cc2ncc(C#N)c(Nc3cc(Br)c(O)c(Br)c3)c2cc1OC | > 250 °C

Row | SMILES | melting point
49 | CCOc1nn(Cc2ccc(OCc3nc(-c4ccccc4)ccc3Cl)cc2)cc1CCC(=O)O | 120 to 121 °C
50 | C#CCOc1ccc(-c2nc3ccccc3o2)cc1 | 124 to 127 °C
51 | O=C(O)CCC(=O)c1ccc(-c2ccc(Cl)cc2F)cc1 | 127 to 129 °C
52 | CCOC(=O)NCN1C(=O)CN=C(c2ccccc2Cl)c2cc(Cl)ccc21 | 147 to 149 °C
53 | CC(C)C[C@H](NC(=O)OCc1ccccc1)C(=O)N[C@@H](Cc1ccccc1)C(=O)CS(C)(=O)=O | 142 to 144 °C
54 | CCOC(=O)c1cc(-c2ccc(Cl)cc2)cnc1C(Cl)Cl | 132 to 134 °C
55 | COc1ccc(C(=O)C(CCc2cccc(OC)c2)c2ccccc2)cc1 (configuration not stated) | 79 to 85 °C
56 | CC(C)C(=O)c1ccc(OCc2ccc(CNC(=O)c3cn(C)cn3)cc2)c(C(F)(F)F)c1O | 165 °C
57 | O=C1N(Cc2ccccn2)c2ccccc2C12COc1ccc3nonc3c12 (configuration not stated) | 180 to 182 °C
58 | CCCCCCc1ncc(/C=C(\Cc2cccs2)C(=O)O)n1Cc1ccccc1Cl | 161 to 163 °C
59 | Cc1cccc(C2=C(c3cn(C)c4ccccc34)C(=O)NC2=O)c1 | 243 °C
60 | CCN(CC)CCN1C(=O)C(C)(C)N=C(c2ccccc2Cl)c2cc([N+](=O)[O-])ccc21 | 70 °C
61 | CCCCN(CCCC)C(=O)c1cc(C(C)(C)C)c(O)c(C(C)(C)C)c1 | 94 to 95 °C
62 | CC(=O)Nc1cc(OCCC(=O)O)ccc1Oc1ccccc1 | 138 to 140 °C
63 | CNc1nc(C=CC(=O)OC)c(-c2ccncc2)s1 | 166 to 167 °C
64 | COc1cc(OC)c(OC)cc1CN1CCc2cc(OCc3ccccc3)c(OC)cc2C1 | 110 to 111 °C
65 | CCCc1c(OCCCOc2cc(NC(=O)C(=O)O)c(C(F)(F)F)cc2Cl)ccc(C(C)=O)c1O | 173 to 174 °C
66 | O=C(O)CCCCCO/N=C/c1cccnc1 | 117 °C
67 | CCCc1nc2ccnn2c(O)c1Cc1ccc(-c2ccccc2-c2nnn[nH]2)cc1 | > 320 °C
